Measured values from US9024033B2, “Anti-malarial agents” (MMV Medicines for Malaria Venture, priority 2010, dated 2015).
In brackets after ≈: the same amount, converted by molar mass.

Legend:
Format in all cases: cell-based
P. falciparum (3D7) = assay: Assay 2: DAPI imaging assay of parasite replication, P. falciparum 3D7; settings: Plasmodium falciparum, strain 3D7, 1.8 μM, 72 hours
Method: (§1) The ability of aminopyridine derivatives according to the invention to kill P. falciparum parasites and/or to inhibit its proliferation was tested as follows:
(§2) Assay 2: Compounds were incubated in the presence of 2 or 3% ring stage parasite (P. falciparum 3D7 or Dd2) and 0.3% hematocrite in a total assay volume of 50 μL, for 72 hours in a humidified atmosphere at 37° C., 5% O2 and 5% CO2, in Poly-D-lysine coated Cell Carrier Imaging plates (Perkin Elmer). After incubation plates were stained with DAPI (4′,6-diamidino-2-phenylindole, Invitrogen) in the presence of Saponin and Triton X-100 (Sigma-Aldrich) and incubated for a further 5 hours at RT in the dark before imaging on the OPERATM HTS confocal imaging system (Perkin Elmer). The digital images obtained were then analyzed using the PerkinElmer Acapella spot detection software where spots which fulfil the criteria established for a stained parasite are counted. The % inhibition of parasite replication was calculated using DMSO and 2 μM Artemisinin control data. Measured % inhibition and EC50 (ng/ml) are reported in Tables 5 & 6 below against different strains of P. falciparum K1, NF54 (assay 1) and 3D7, Dd2 (assay 2), respectively).

P. falciparum (Dd2) = assay: Assay 2: DAPI imaging assay of parasite replication, P. falciparum Dd2; settings: Plasmodium falciparum, strain Dd2, 1.8 μM, 72 hours
Method: as §1, §2

P. falciparum (K1) = assay: Assay 1: anti-malarial in vitro efficacy, P. falciparum K1; settings: Plasmodium falciparum; strain K1, assay 1
Method: as §1
(§3) Assay 1: The protocol used was as described in the supplemental material to Fiddock et al., 2004, Nature Reviews Drug Discovery, (3), p 509. […]

P. falciparum (NF54) = assay: Assay 1: anti-malarial in vitro efficacy, P. falciparum NF54; settings: Plasmodium falciparum; strain NF54, assay 1
Method: as §1, §3

EC50 (P. falciparum (K1)) [µg/mL]	EC50 (P. falciparum (NF54)) [µg/mL]	SMILES	inhibition at 1.8 µM (P. falciparum (3D7)) [%]	inhibition at 1.8 µM (P. falciparum (Dd2)) [%]
–	–	COc1ccc(-c2cnc(N)c(-c3ccc(O)c(OC)c3)c2)cn1 [Compound 6, 4-[2-amino-5-(6-methoxypyridin-3-yl)pyridin-3-yl]-2-methoxyphenol]	98	98
0.028 (≈ 0.0842 µM)	0.025 (≈ 0.0752 µM)	NC(=O)c1ccc(-c2cnc(N)c(-c3ccc(C(N)=O)cc3)c2)cc1 [Compound 80, 4-[2-amino-3-(4-benzamido)pyridin-5-yl]benzamide]	–	–
–	–	CN1CCN(c2ccc(-c3cc(-c4ccc(O)cc4)cnc3N)cc2)CC1 [Compound 9, 4-[6-amino-5-[4-(4-methylpiperazin-1-yl)phenyl]pyridin-3-yl]phenol]	76	53
–	–	CS(=O)(=O)c1ccc(-c2cnc(N)c(-c3ccc(O)cc3)c2)cc1 [Compound 5, 4-[2-amino-5-(4-methylsulfonylphenyl)pyridin-3-yl]phenol]	98	98
0.014 (≈ 0.0394 µM)	–	COc1ccc(-c2cc(-c3ccc(S(C)(=O)=O)cc3)cnc2N)cn1 [Compound 1, 3-(6-Methoxypyridin-3-yl)-5-(4-methylsulfonylphenyl) pyridin-2-amine]	–	–
0.11 (≈ 0.259 µM)	0.088 (≈ 0.207 µM)	CN(C)CC(=O)Nc1ccc(-c2cc(-c3ccc(S(C)(=O)=O)cc3)cnc2N)cc1 [Compound 75, N-{4-[2-amino-5-(4-(methylsulfonyl)phenyl)pyridin-3-yl]phenyl}-2-(dimethylamino) acetamide]	–	–
0.031 (≈ 0.079 µM)	0.041 (≈ 0.104 µM)	CS(=O)(=O)c1ccc(-c2cnc(N)c(-c3cccc(C(F)(F)F)c3)c2)cc1 [Compound 2, 5-(4-methylsulfonylphenyl)-3-[3-(trifluoromethyl)phenyl]pyridin-2-amine]	99	96
0.0086 (≈ 0.0219 µM)	0.0081 (≈ 0.0206 µM)	CS(=O)(=O)c1ccc(-c2cnc(N)c(-c3ccc(C(F)(F)F)cc3)c2)cc1 [Compound 85, 3-[4-(trifluoromethyl)phenyl]-5-[4-(methylsulfonyl)phenyl]pyridin-2-amine]	–	–
0.032 (≈ 0.0795 µM)	0.031 (≈ 0.077 µM)	CS(=O)(=O)c1ccc(-c2cnc(N)c(-c3ccc(S(C)(=O)=O)cc3)c2)cc1 [Compound 17, 3,5-di-[4-(methylsulfonyl)phenyl]pyridin-2-amine]	–	–
–	–	CS(=O)(=O)c1ccc(-c2cnc(N)c(-c3cccc(O)c3)c2)cc1 [Compound 3, 3-[2-amino-5-(4-methylsulfonylphenyl)pyridin-3-yl]phenol]	99	94
0.026 (≈ 0.0682 µM)	0.03 (≈ 0.0786 µM)	CNC(=O)c1ccc(-c2cc(-c3ccc(S(C)(=O)=O)cc3)cnc2N)cc1 [Compound 29, 4-{2-amino-5-[4-(methylsulfonyl)-phenyl]pyridin-3-yl}-N-methyl benzamide]	–	–
0.041 (≈ 0.12 µM)	0.04 (≈ 0.117 µM)	CS(=O)(=O)c1ccc(-c2cnc(N)c(-c3cnc(N)nc3)c2)cc1 [Compound 55, 5-{2-amino-5-[4-(methylsulfonyl)-phenyl]pyridin-3-yl}pyrimidin-2-amine]	–	–
0.0068 (≈ 0.0169 µM)	0.0079 (≈ 0.0196 µM)	NC(=O)c1ccc(-c2cc(-c3ccc(C(=O)N4CCOCC4)cc3)cnc2N)cc1 [Compound 71, {4-[2-amino-3-(4-carbamoyl phenyl)pyridin-5-yl]phenyl}-(morpholino) methanone]	–	–
–	–	COc1ccc(-c2cc(-c3ccc(CO)cc3)cnc2N)cn1 [Compound 8, [4-[6-amino-5-(6-methoxypyridin-3-yl)pyridin-3-yl]phenyl]methanol]	83	–
0.098 (≈ 0.275 µM)	0.093 (≈ 0.261 µM)	COc1ncc(-c2cc(-c3ccc(S(C)(=O)=O)cc3)cnc2N)cn1 [Compound 31, 3-(2-methoxypyrimidin-5-yl)-5-[4-(methylsulfonyl)phenyl]pyridin-2-amine]	–	–
0.061 (≈ 0.155 µM)	0.071 (≈ 0.18 µM)	CS(=O)(=O)c1ccc(-c2cnc(N)c(-c3ccnc(C(F)(F)F)c3)c2)cc1 [Compound 42, 3-[2-(trifluoromethyl)pyridin-4-yl]-5-[4-(methylsulfonyl)phenyl] pyridin-2-amine]	–	–

EC50 (P. falciparum (K1)) [µg/mL]	EC50 (P. falciparum (NF54)) [µg/mL]	SMILES	inhibition at 1.8 µM (P. falciparum (3D7)) [%]	inhibition at 1.8 µM (P. falciparum (Dd2)) [%]
0.01 (≈ 0.0272 µM)	0.01 (≈ 0.0272 µM)	CS(=O)(=O)c1ccc(-c2cnc(N)c(-c3ccc(C(N)=O)cc3)c2)cc1 [Compound 28, 4-{2-amino-5-[4-(methylsulfonyl)phenyl]pyridin-3-yl} benzamide]	–	–
–	–	COc1cc(-c2cc(-c3ccc(S(C)(=O)=O)cc3)cnc2N)ccc1O [Compound 4, 4-[2-amino-5-(4-methylsulfonylphenyl)pyridin-3-yl]-2-methoxyphenol]	99	96
0.085 (≈ 0.218 µM)	0.089 (≈ 0.228 µM)	CS(=O)(=O)c1ccc(-c2cnc(N)c(-c3ccc(-n4cccn4)cc3)c2)cc1 [Compound 47, 3-[4-(1H-pyrazol-1-yl)phenyl]-5-[4-(methylsulfonyl)phenyl] pyridin-2-amine]	–	–
0.046 (≈ 0.12 µM)	0.047 (≈ 0.123 µM)	CC(=O)Nc1ccc(-c2cc(-c3ccc(S(C)(=O)=O)cc3)cnc2N)cn1 [Compound 79, N-{5-[2-amino-5-(4-(methylsulfonyl)-phenyl)pyridin-3-yl]pyridin-2-yl}acetamide]	–	–
0.051 (≈ 0.146 µM)	0.056 (≈ 0.16 µM)	CS(=O)(=O)c1ccc(-c2cnc(N)c(-c3ccc(C#N)cc3)c2)cc1 [Compound 25, 4-{2-amino-5-[4-(methylsulfonyl)-phenyl]pyridin-3-yl}benzonitrile]	–	–
0.11 (≈ 0.273 µM)	0.094 (≈ 0.233 µM)	CS(=O)(=O)c1ccc(-c2cnc(N)c(-c3ccc(S(C)(=O)=O)nc3)c2)cc1 [Compound 78, 5-[4-(methylsulfonyl)phenyl]-3-[2-(methylsulfonyl)-pyridin-5-yl]pyridin-2-amine]	–	–
0.01 (≈ 0.0254 µM)	–	CS(=O)(=O)c1ccc(-c2cnc(N)c(-c3ccc(C(F)(F)F)nc3)c2)cc1 [Compound 44, 3-[2-(trifluoromethyl)pyridin-5-yl]-5-[4-(methylsulfonyl)phenyl] pyridin-2-amine]	–	–
0.074 (≈ 0.181 µM)	0.078 (≈ 0.191 µM)	CS(=O)(=O)c1ccc(-c2cnc(N)c(-c3cccc(OC(F)(F)F)c3)c2)cc1 [Compound 36, 5-[4-(methysulfonyl)phenyl]-3-[3-(trifluoromethoxy)phenyl] pyridin-2-amine]	–	–
0.06 (≈ 0.169 µM)	0.061 (≈ 0.172 µM)	CS(=O)(=O)c1ccc(-c2cnc(N)c(-c3ccc(CO)nc3)c2)cc1 [Compound 69, {5-[2-amino-5-(4-(methylsulfonyl)-phenyl)pyridin-3-yl]pyridin-2-yl}methanol]	–	–
0.097 (≈ 0.238 µM)	0.099 (≈ 0.242 µM)	CS(=O)(=O)c1ccc(-c2cnc(N)c(-c3ccc(OC(F)(F)F)cc3)c2)cc1 [Compound 37, 5-[4-(methylsulfonyl)phenyl]-3-[4-(trifluoromethoxy)phenyl]pyridin-2-amine]	–	–
0.033 (≈ 0.0975 µM)	0.034 (≈ 0.1 µM)	Cc1ccc(-c2cc(-c3ccc(S(C)(=O)=O)cc3)cnc2N)cc1 [Compound 65, 5-[4-(methylsulfonyl)phenyl]-3-p-tolylpyridin-2-amine]	–	–
0.059 (≈ 0.169 µM)	0.061 (≈ 0.175 µM)	CS(=O)(=O)c1ccc(-c2cnc(N)c(-c3cccc(C#N)c3)c2)cc1 [Compound 26, 3-{2-amino-5-[4-(methylsulfonyl)-phenyl]pyridin-3-yl}benzonitrile]	–	–
0.098 (≈ 0.261 µM)	0.107 (≈ 0.285 µM)	CS(=O)(=O)c1ccc(-c2cnc(N)c(-c3ccc4ncccc4c3)c2)cc1 [Compound 59, 5-[4-(methylsulfonyl)phenyl]-3-(quinolin-6-yl) pyridin-2-amine]	–	–
–	–	Cc1cc(-c2cnc(N)c(-c3ccc(N4CCN(C)CC4)cc3)c2)cc(C)c1O [Compound 7, 4-[6-amino-5-[4-(4-methylpiperazin-1-yl)phenyl]pyridin-3-yl]-2,6-dimethylphenol]	93	96
0.0098 (≈ 0.0289 µM)	0.0094 (≈ 0.0277 µM)	Cc1ccc(-c2cc(-c3ccc(S(C)(=O)=O)cc3)cnc2N)cn1 [Compound 43, 3-(2-methylpyridin-5-yl)-5-[4-(methylsulfonyl)phenyl] pyridin-2-amine]	–	–
